“Also recorded” adds a separate entry of the source. Read-outs that look alike come from different tables or passages of the source.
What was measured:
acetylcholinesterase = acetylcholinesterase (Homo sapiens (Human), UniProt P22303); experiment: biochemical; type: biochemical; conditions: for potency on acetylcholinesterase compared with positive control drug donepezil hydrochloride: in vitro, enzymology level
[1] = test system: learning and memory disorder of mice induced by scopolamine; experiment: Morris water maze test, senile dementia mice model induced by scopolamine; type: in vivo; conditions: Table 6, scopolamine 1 mg/kg
[2] = modified Ellman method, read-out: IC50 (nM), inhibition activity on acetylcholinesterase
[3] = read-out: IC50 (nM), inhibition activity on acetylcholinesterase

Chain of acetylcholinesterase (P22303 32-614, species assumed): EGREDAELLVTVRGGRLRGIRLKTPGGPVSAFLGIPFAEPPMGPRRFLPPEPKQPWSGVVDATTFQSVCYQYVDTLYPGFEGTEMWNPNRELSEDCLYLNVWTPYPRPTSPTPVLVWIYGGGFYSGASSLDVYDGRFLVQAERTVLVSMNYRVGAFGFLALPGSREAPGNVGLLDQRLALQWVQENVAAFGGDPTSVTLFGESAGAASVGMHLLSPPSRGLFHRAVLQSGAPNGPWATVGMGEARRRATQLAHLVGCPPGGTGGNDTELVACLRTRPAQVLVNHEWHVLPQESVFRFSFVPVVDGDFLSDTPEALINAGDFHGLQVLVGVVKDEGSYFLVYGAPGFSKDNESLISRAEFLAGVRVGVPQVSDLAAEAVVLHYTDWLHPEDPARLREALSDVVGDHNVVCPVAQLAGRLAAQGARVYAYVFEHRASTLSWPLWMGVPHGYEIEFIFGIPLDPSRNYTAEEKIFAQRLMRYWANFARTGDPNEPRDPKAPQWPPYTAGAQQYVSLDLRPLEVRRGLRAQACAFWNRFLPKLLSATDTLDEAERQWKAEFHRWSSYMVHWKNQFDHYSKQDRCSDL

## CC1c2cc3c(cc2C(=O)N1CCC1CCN(Cc2ccc(F)cc2)CC1)OCO3 (centres unmarked) [Compound I-12, 6-[2-[1-[(4-fluorophenyl)methyl]-4-piperidyl]ethyl]-5-methyl-5H-[1,3]dioxolo[4,5-f]isoindol-7-one]
acetylcholinesterase
  potency on acetylcholinesterase compared with positive control drug donepezil hydrochloride: relative low activity
acetylcholinesterase; [2]
  IC50: > 2000 nM

## CC1(C)c2cc3c(cc2C(=O)N1CCC1CCN(Cc2ccc(F)cc2)CC1)OCO3 [Compound I-16, 6-[2-[1-[(4-fluorophenyl)methyl]-4-piperidyl]ethyl]-7,7-dimethyl-[1,3]dioxolo[4,5-f]isoindol-5-one]
acetylcholinesterase
  potency on acetylcholinesterase compared with positive control drug donepezil hydrochloride: relative low activity
acetylcholinesterase; [2]
  IC50: > 2000 nM

## O=C1c2cc3c(cc2C2(CC2)N1CCC1CCN(Cc2ccncc2)CC1)OCO3 [Compound I-31, 6-[2-[1-(4-pyridylmethyl)-4-piperidyl]ethyl]spiro[[1,3]dioxolo[4,5-f]isoindole-7,1′-cyclopropane]-5-one]
acetylcholinesterase
  potency on acetylcholinesterase compared with positive control drug donepezil hydrochloride: relative low activity
acetylcholinesterase; [3]
  IC50: > 2000 nM

## O=C1c2cc3c(cc2C2(CC2)N1CCC1CCN(Cc2cccnn2)CC1)OCO3 [Compound I-38, 6-[2-[1-(pyridazin-3-ylmethyl)-4-piperidyl]ethyl]spiro[[1,3]dioxolo[4,5-f]isoindole-7,1′-cyclopropane]-5-one]
acetylcholinesterase
  potency on acetylcholinesterase compared with positive control drug donepezil hydrochloride: relative low activity
acetylcholinesterase; [3]
  IC50: > 2000 nM

## O=C1c2cc3c(cc2C2(CC2)N1CCC1CCN(Cc2ccc[nH]2)CC1)OCO3 [Compound I-39, 6-[2-[1-(1H-pyrrol-2-ylmethyl)-4-piperidyl]ethyl]spiro[[1,3]dioxolo[4,5-f]isoindole-7,1′-cyclopropane]-5-one]
acetylcholinesterase
  potency on acetylcholinesterase compared with positive control drug donepezil hydrochloride: relative low activity
acetylcholinesterase; [3]
  IC50: > 2000 nM

## CC1c2cc3c(cc2C(=O)N1CCC1CCN(Cc2cccc(F)c2)CC1)OCO3 (centres unmarked) [Compound I-11, 6-[2-[1-[(3-fluorophenyl)methyl]-4-piperidyl]ethyl]-5-methyl-5H-[1,3]dioxolo[4,5-f]isoindol-7-one]
acetylcholinesterase
  potency on acetylcholinesterase compared with positive control drug donepezil hydrochloride: even lower
acetylcholinesterase; [2]
  IC50: 889 nM

## O=C1c2cc3c(cc2CN1CCC1CCN(Cc2ccccc2F)CC1)OCO3 [Compound I-6, 6-[2-[1-[(2-fluorophenyl)methyl]-4-piperidyl]ethyl]-5H-[1,3]dioxolo[4,5-f]isoindol-7-one]
acetylcholinesterase
  potency on acetylcholinesterase compared with positive control drug donepezil hydrochloride: even lower
acetylcholinesterase; [2]
  IC50: 483 nM

## O=C1c2cc3c(cc2C(=O)N1CCC1CCN(Cc2ccccc2F)CC1)OCO3 [Compound I-2, 6-[2-[1-[(2-fluorophenyl)methyl]-4-piperidyl]ethyl]-[1,3]dioxolo[4,5-f]isoindole-5,7-dione]
acetylcholinesterase
  potency on acetylcholinesterase compared with positive control drug donepezil hydrochloride: slightly higher potency than the positive control drug; also recorded: comparable inhibition activity on acetylcholinesterase with donepezil hydrochloride
acetylcholinesterase; [3]
  IC50: 80 nM

## O=C1c2cc3c(cc2C2(CC2)N1CCC1CCN(Cc2ccccc2Cl)CC1)OCO3 [Compound I-21, 6-[2-[1-[(2-chlorophenyl)methyl]-4-piperidyl]ethyl]spiro[[1,3]dioxolo[4,5-f]isoindole-7,1′-cyclopropane]-5-one]
acetylcholinesterase
  potency on acetylcholinesterase compared with positive control drug donepezil hydrochloride: even lower
acetylcholinesterase; [2]
  IC50: 653 nM

## O=C1c2cc3c(cc2C2(CC2)N1CCC1CCN(Cc2ccn[nH]2)CC1)OCO3 [Compound I-41, 6-[2-[1-(1H-pyrazol-5-ylmethyl)-4-piperidyl]ethyl]spiro[[1,3]dioxolo[4,5-f]isoindole-7,1′-cyclopropane]-5-one]
acetylcholinesterase
  potency on acetylcholinesterase compared with positive control drug donepezil hydrochloride: even lower
acetylcholinesterase; [3]
  IC50: 990 nM

## N#Cc1ccccc1CN1CCC(CCN2C(=O)c3cc4c(cc3C23CC3)OCO4)CC1 [Compound I-24, 6-[2-[1-[(2-cyanophenyl)methyl]-4-piperidyl]ethyl]spiro[[1,3]dioxolo[4,5-f]isoindole-7,1′-cyclopropane]-5-one]
acetylcholinesterase
  potency on acetylcholinesterase compared with positive control drug donepezil hydrochloride: relative low activity
acetylcholinesterase; [2]
  IC50: > 2000 nM

## Cc1ccc(CN2CCC(CCN3C(=O)c4cc5c(cc4C34CC4)OCO5)CC2)[nH]1 [Compound I-40, 6-[2-[1-[(5-methyl-1H-pyrrol-2-yl)methyl]-4-piperidyl]ethyl]spiro[[1,3]dioxolo[4,5-f]isoindole-7,1′-cyclopropane]-5-one]
acetylcholinesterase
  potency on acetylcholinesterase compared with positive control drug donepezil hydrochloride: relative low activity
acetylcholinesterase; [3]
  IC50: > 2000 nM

## CC1c2cc3c(cc2C(=O)N1CCC1CCN(Cc2ccccc2)CC1)OCO3 (centres unmarked) [Compound I-9, 6-[2-(1-benzyl-4-piperidyl)ethyl]-5-methyl-5H-[1,3]dioxolo[4,5-f]isoindol-7-one]
[1]; 5 mg/kg intragastric
  latent period day 1: 58.9 ± 4.0 s
  latent period day 2: 60 ± 0 s
  latent period day 3: 51.2 ± 11.0 s
  latent period day 4: 53.4 ± 11.8 s
  latent period day 5: 51.1 ± 11.5 s
  times of crossing platform: 1.27 ± 1.44
[1]; 10 mg/kg intragastric
  latent period day 1: 58.3 ± 6.5 s
  latent period day 2: 56.6 ± 9.1 s
  latent period day 3: 56.5 ± 6.3 s
  latent period day 4: 51.1 ± 11.6 s
  latent period day 5: 49.2 ± 16.9 s
  times of crossing platform: 1.80 ± 1.74

## CC1c2cc3c(cc2C(=O)N1CCC1CCN(Cc2ccccc2F)CC1)OCO3 (centres unmarked) [Compound I-10, 6-[2-[1-[(2-fluorophenyl)methyl]-4-piperidyl]ethyl]-5-methyl-5H-[1,3]dioxolo[4,5-f]isoindol-7-one]
acetylcholinesterase
  potency on acetylcholinesterase compared with positive control drug donepezil hydrochloride: slightly lower potency than the positive control drug
acetylcholinesterase; [2]
  IC50: 239 nM

## O=C1c2cc3c(cc2CN1CCC1CCN(Cc2ccccc2)CC1)OCO3 [Compound I-5, 6-[2-(1-benzyl-4-piperidyl)ethyl]-5H-[1,3]dioxolo[4,5-f]isoindol-7-one]
acetylcholinesterase; IC50 (nM), inhibition activity on acetylcholinesterase, modified Ellman method
  IC50: 502 nM
acetylcholinesterase
  potency on acetylcholinesterase compared with positive control drug donepezil hydrochloride: even lower

## O=C1c2cc3c(cc2CN1CCC1CCN(Cc2cccc(F)c2)CC1)OCO3 [Compound I-7, 6-[2-[1-[(3-fluorophenyl)methyl]-4-piperidyl]ethyl]-5H-[1,3]dioxolo[4,5-f]isoindol-7-one]
acetylcholinesterase
  potency on acetylcholinesterase compared with positive control drug donepezil hydrochloride: even lower
acetylcholinesterase; [2]
  IC50: 486 nM

## O=C1c2cc3c(cc2C(=O)N1CCC1CCN(Cc2ccccn2)CC1)OCO3 [Compound I-36, 6-[2-[1-(2-pyridylmethyl)-4-piperidyl]ethyl]-[1,3]dioxolo[4,5-f]isoindole-5,7-dione]
acetylcholinesterase
  potency on acetylcholinesterase compared with positive control drug donepezil hydrochloride: slightly lower potency than the positive control drug
acetylcholinesterase; [2]
  IC50: 161 nM

## O=C1c2cc3c(cc2C(=O)N1CCC1CCN(Cc2ccc(F)cc2)CC1)OCO3 [Compound I-4, 6-[2-[1-[(4-fluorophenyl)methyl]-4-piperidyl]ethyl]-[1,3]dioxolo[4,5-f]isoindole-5,7-dione]
acetylcholinesterase
  potency on acetylcholinesterase compared with positive control drug donepezil hydrochloride: slightly lower potency than the positive control drug; also recorded: comparable inhibition activity on acetylcholinesterase with donepezil hydrochloride
acetylcholinesterase; [2]
  IC50: 167 nM

## O=C1c2cc3c(cc2C2(CC2)N1CCC1CCN(Cc2ccccc2C(F)(F)F)CC1)OCO3 [Compound I-22, 6-[2-[1-[[2-(trifluoromethyl)phenyl]methyl]-4-piperidyl]ethyl]spiro[[1,3]dioxolo[4,5-f]isoindole-7,1′-cyclopropane]-5-one]
acetylcholinesterase
  potency on acetylcholinesterase compared with positive control drug donepezil hydrochloride: relative low activity
acetylcholinesterase; [2]
  IC50: > 2000 nM

## COc1ccc(CN2CCC(CCN3C(=O)c4cc5c(cc4C34CC4)OCO5)CC2)cc1 [Compound I-28, 6-[2-[1-[(4-methoxyphenyl)methyl]-4-piperidyl]ethyl]spiro[[1, 3]dioxolo[4,5-f]isoindole-7,1′-cyclopropane]-5-one]
acetylcholinesterase
  potency on acetylcholinesterase compared with positive control drug donepezil hydrochloride: relative low activity
acetylcholinesterase; [3]
  IC50: > 2000 nM

## O=C1c2cc3c(cc2C(=O)N1CCC1CCN(Cc2cccnn2)CC1)OCO3 [Compound I-37, 6-[2-[1-(pyridazin-3-ylmethyl)-4-piperidyl]ethyl]-[1,3]dioxolo[4,5-f]isoindole-5,7-dione]
acetylcholinesterase
  potency on acetylcholinesterase compared with positive control drug donepezil hydrochloride: even lower
acetylcholinesterase; [2]
  IC50: 905 nM

## O=C1c2cc3c(cc2C2(CC2)N1CCC1CCN(Cc2cccnc2)CC1)OCO3 [Compound I-30, 6-[2-[1-(3-pyridylmethyl)-4-piperidyl]ethyl]spiro[[1,3]dioxolo[4,5-f]isoindole-7,1′-cyclopropane]-5-one]
acetylcholinesterase
  potency on acetylcholinesterase compared with positive control drug donepezil hydrochloride: relative low activity
acetylcholinesterase; [2]
  IC50: > 2000 nM

## O=C1c2cc3c(cc2C2(CC2)N1CCC1CCN(Cc2c(F)cccc2F)CC1)OCO3 [Compound I-25, 6-[2-[1-[(2,6-difluorophenyl)methyl]-4-piperidyl]ethyl]spiro[[1,3]dioxolo[4,5-f]isoindole-7,1′-cyclopropane]-5-one]
acetylcholinesterase
  potency on acetylcholinesterase compared with positive control drug donepezil hydrochloride: slightly lower potency than the positive control drug
acetylcholinesterase; [3]
  IC50: 249 nM

## O=C1c2cc3c(cc2C2(CC2)N1CCC1CCN(Cc2ncccn2)CC1)OCO3 [Compound I-32, 6-[2-[1-(pyrimidin-2-ylmethyl)-4-piperidyl]ethyl]spiro[[1,3]dioxolo[4,5-f]isoindole-7,1′-cyclopropane]-5-one]
acetylcholinesterase
  potency on acetylcholinesterase compared with positive control drug donepezil hydrochloride: relative low activity
acetylcholinesterase; [2]
  IC50: > 2000 nM

## COc1ccccc1CN1CCC(CCN2C(=O)c3cc4c(cc3C23CC3)OCO4)CC1 [Compound I-26, 6-[2-[1-[(2-methoxyphenyl)methyl]-4-piperidyl]ethyl]spiro[[1, 3]dioxolo[4,5-f]isoindole-7,1′-cyclopropane]-5-one]
acetylcholinesterase
  potency on acetylcholinesterase compared with positive control drug donepezil hydrochloride: relative low activity
acetylcholinesterase; [2]
  IC50: > 2000 nM

## O=C1c2cc3c(cc2CN1CCC1CCN(Cc2ccc(F)cc2)CC1)OCO3 [Compound I-8, 6-[2-[1-[(4-fluorophenyl)methyl]-4-piperidyl]ethyl]-5H-[1,3]dioxolo[4,5-f]isoindol-7-one]
acetylcholinesterase
  potency on acetylcholinesterase compared with positive control drug donepezil hydrochloride: even lower
acetylcholinesterase; [2]
  IC50: 658 nM
